Several values for one entry are separate records, joined by “and”; a condition that tells them apart may be missing. Identical values can stand only once.
Columns and labels:
[1] = system: MX-1 mammary carcinoma cells; test: 3H-Thymidine incorporation (proliferation) assay; format: cell-based, human; conditions: positive control, 10^−5 M doxorubicin; negative control = 100%
Procedure: Test compounds: Tested substances were dissolved in the appropriate medium as follows: carmustine (Sigma) was dissolved in ethanol, disulfiram (DSF) (Sigma) and curcumin (Fluka) were dissolved in dimethyl sulfoxide (DMSO), and DL-buthionine-sulfoximine (BSO) (Fluka) was dissolved in growth medium.
Compounds were added in a 1:10 serial dilution to the wells to obtain range of 10^−3 M to 10^−8 M final concentrations.
Controls: Positive control—10^−5M Doxorubicin. Negative control—Media containing the compound's solvent.
Cell lines: MX-1 mammary carcinoma cells were grown in RPMI-1640 medium, supplemented with 10% FBS, 2 mM L-glutamine, 1% penicillin/streptomycin and 1% non-essential amino acids.
MX-1 culturing and sub-culturing: MX-1 cells were grown in 75 cm^2 culture flasks. The culture medium was changed every other day and the day before the experiment. […]
Thymidine incorporation (proliferation) assay and cells harvesting: 24 hours after administering the compounds, to each well in the culture plates, ^3H-thymidine (NET-027 Thymidine [methyl-^3H] from NEN, 6.7 Ci/mmol) was added to final concentration of 0.4 μCi/well. […] Radioactivity was determined after adding 180 μl scintillation liquid (Microscint 20™, Packard).
Data calculation: The data represent the mean amount of thymidine counted per well (CPM). Average and standard deviation (SD) were calculated for each plate (12 wells). […]

various cell lines = conditions: BSO by itself; Dai et al. (1999); cited from earlier work
neuroblastoma cells = conditions: Nicole et al. (1998); cited from earlier work

Row | Compound | Cell proliferation rate [1] | decrease in [GSH] in the cell (various cell lines) [%] | decrease of GSH content (neuroblastoma cells) [%]
1 | COc1cccc2c1C(=O)c1c(O)c3c(c(O)c1C2=O)C[C@@](O)(C(=O)CO)C[C@@H]3O[C@H]1C[C@H](N)[C@H](O)[C@H](C)O1 [doxorubicin, Doxorubicin] | 4-11% and 4% | – | –
2 | CCCCS(=N)(=O)CCC(N)C(=O)O (racemic) [BSO, buthionine sulfoximine] | – | 70 | 98

Source: patent US20080287541A1, “Kit for Treatment of Cancer” (Redoxia Israel Ltd., priority 2004, published 2008)
